System: NFkB
Experiment: In vitro inflammatory assay: TNFα-induced NFkB luciferase reporter in Jurkat cells
Format: cell-based
Details: for IC50 / inhibition at 120 µM: Homo sapiens; for IC50: read-out: IC50 (μM), in vitro inflammatory data (inhibition of NFkB activity)
Method: I. Protocol for In Vitro Inflammatory Assay:
• 1. Jurkat cell line expressing a luciferase reporter under the control of an NFkB promoter sequence was created. Clones were isolated using G418 and then characterized for enhanced luciferase activity following stimulation of cells with either TNFα or PMA+Ionomycin. • 2. Assay protocol was as follows: • Day 1: Cells were split to a density of 1.1×10^5 cells/mL. • Day 2: • Cells were adjusted to a density of 2×10^5/mL. • 100 μl of cells were added to each well of a 96-well plate. • Test compounds were diluted to 200 μg/mL in media (1% DMSO). • 100 μl of diluted test compound was added to cells. Final test compound concentration from […] was added and the final DMSO concentration=0.5%. Compounds were tested in duplicate. • Plates were incubated 1 hour at 37° C. • 10 μl of a 2.1 nM TNFα solution was added to each well. Plates were returned to 37° C. for another 4 hours. • TNFα-induced luciferase activity was determined using commercially available kits and a microplate luminometer. • Inhibition of NFkB activity was determined by comparing luciferase activity from test compound-treated cells to luciferase activity in 0.5% DMSO-treated (control) cells.

[1] = Jurkat NFkB-luciferase reporter cells, TNFα stimulation, 1 hour preincubation + 4 hours
[2] = Jurkat NFkB-luciferase reporter cells, TNFα stimulation

CC[C@H]1OC(=O)[C@H](C)[C@@H](C)[C@H](C)[C@H](OC2O[C@H](C)C[C@H](N(C)C)[C@@H]2OC(=O)c2ccccc2)[C@](C)(O)C[C@H](C)/C(=N\OCOCCN2CCN(c3ccccc3)CC2)[C@@H](C)[C@H](O)[C@@]1(C)O (stereo partly shown) [Entry 10]
IC50 [1]: 30 µM

CC[C@H]1OC(=O)C[C@@H](O)[C@H](C)[C@@H](O[C@@H]2O[C@H](C)[C@@H](O[C@H]3C[C@@](C)(O)[C@@H](O)[C@H](C)O3)[C@H](N(C)C)[C@H]2O)[C@@H](CC=O)C[C@@H](C)C(=O)/C=C/C(C)=C/[C@@H]1CO[C@@H]1O[C@H](C)[C@@H](O)[C@@H](OC)[C@H]1OC [Tylosin]
IC50 [1]: > 120 µM
inhibition at 120 µM [2]: ~20%

C=CCOC1C(C)OC(O[C@H]2[C@@H](CC=O)C[C@@H](C)C(=O)/C=C/C=C/C[C@@H](C)OC(=O)/C=C/[C@@H]2OC)C(O)C1N(C)C (stereo partly shown) [Entry 8]
IC50 [1]: 41 µM

CO[C@@H]1[C@@H](O[C@@H]2O[C@H](C)[C@@H](O[C@H]3C[C@@](C)(O)[C@@H](OC(=O)CC(C)C)[C@H](C)O3)[C@H](N(C)C)[C@H]2O)[C@@H](CC=O)C[C@@H](C)[C@@H](O)/C=C/C=C/C[C@@H](C)OC(=O)C[C@H]1OC(C)=O [Josamycin]
IC50 [1]: > 120 µM
inhibition at 120 µM [2]: ~20%

CC[C@H]1OC(=O)C[C@@H](O)[C@H](C)[C@@H](OC2O[C@H](C)[C@@H](OC(=O)c3ccccc3)[C@H](C(C)C)[C@H]2OC(=O)c2ccccc2)[C@@H](CC=O)C[C@@H](C)C(=O)/C=C/C(C)=C/[C@@H]1CO (stereo partly shown) [Entry 12]
IC50 [1]: 17 µM

CC[C@@H]1OC(=O)C[C@H](O)[C@@H](C)[C@H](OC2O[C@H](C)[C@H](OC(C)=O)[C@H](N(C)C)[C@@H]2OC(C)=O)[C@H](CCO)C[C@H](C)C(=O)/C=C/C(C)=C/[C@@H]1CO[Si](C)(C)C(C)(C)C (stereo partly shown) [Entry 11]
IC50 [1]: 22 µM

CC[C@H]1OC(=O)[C@H](C)[C@@H](O[C@H]2C[C@@](C)(OC)[C@@H](O)[C@H](C)O2)[C@H](C)[C@@H](O[C@@H]2O[C@H](C)C[C@H](N(C)C)[C@H]2O)[C@](C)(O)C[C@@H](C)C(=O)[C@H](C)[C@@H](O)[C@]1(C)O [Erythromycin]
IC50 (μM), in vitro inflammatory data (inhibition of NFkB activity) [1]: Inactive

CC[C@H]1OC(=O)C[C@@H](O)[C@H](C)[C@@H](O[C@@H]2O[C@H](C)[C@@H](OC(=O)c3ccccc3)[C@H](N(C)C)[C@H]2OC(=O)c2ccccc2)[C@@H](CC=O)C[C@@H](C)C(=O)/C=C/C(C)=C/[C@@H]1CO [compound (3)]
activity in vitro inflammatory assay compared with Erythromycin, Clarithromycin, Josamycin and Tylosin (comparison in words): improved activity

From US20090131343A1, “USE OF BRIDGED MACROLIDES OR TYLOSIN DERIVATIVES IN TREATING INFLAMMATORY BOWEL DISEASES” (priority 2007, published 2009)
